pEC50: −log10 of the molar value.
Experiments:
Colo-26 cells = assay: Dark and light-induced toxicity toward Colo-26 cells in culture; format: cell-based, murine
Procedure: In order to compare relative phototoxicity, the core-modified porphyrins of Table 1 were evaluated in culture for dark and light-induced toxicities toward Colo-26 cells, a murine colon carcinoma cell line.

[1] = Rate of photobleaching in phosphate-buffered saline; format: physicochemical; conditions: PBS; 570-750 nm light at 500 mW cm^−2; constant initial absorbance
Excerpt: One limitation of PDT dosimetry is the rate of photobleaching of the photosensitizer, which can be problematic with Photofrin® and even more problematic with the bacteriochlorins and the chlorins (such as HPPH).

R3230AC cells = assay: Viability of R3230AC cells in the dark and after light; format: cell-based, rat; conditions: 10^−6 M; 24 h after 0.9 J cm^−2 of 590-750 nm light
cytochrome c oxidase = assay: Whole cell mitochondrial cytochrome c oxidase activity in R3230AC cells; format: cell-based, rat
Procedure: In parallel experiments, mitochondrial cytochrome c oxidase activity was determined after exposure of R3230AC cells to the same porphyrins either in the dark or 24 h after light exposure (FIG. 8b). […] In contrast, MA-99 inhibited whole cell cytochrome c oxidase activity by 60% after a 24-h incubation period in R3230AC cells. […] Cytochrome c oxidase activity in R3230AC cells irradiated in the presence of MA-99 was inhibited by 95%, […] in enzyme activity compared to that obtained from cells incubated with MA-99, but not exposed to light.
Determination of the effects of dyes on intracellular mitochondrial cytochrome c oxidase are performed on cultured R3230AC cells. Cultures are seeded at 1×10^5 cells/well on 12-well plates in 1.0 mL MEM (described above). Twenty-four h later, sensitizers are added at concentrations ranging from 10^−4 to 10^−6 M. Cells are incubated in the dark with the sensitizers in MEM for 24 h in a 37° C. incubator. […] Cytochrome c oxidase is measured as above after cell suspensions are thawed and sonicated on ice after 30 s at 10 s bursts using a Branson probe sonifier set at a power of 2. The whole-cell lysate is added to the cytochrome c reaction mixture and results are expressed as the amount of cytochrome c oxidase activity per 10^5 cells.

Colo-26 tumors = assay: PDT against implanted Colo-26 tumors in BALB/c mice; format: in vivo; conditions: 135 J cm^−2; DH-105 2.5, DH-82 0.13, MA-99 0.15 mg/kg, 694 nm 4 h post-injection; Photofrin® 2.5 mg/kg, 630 nm 24 h
Procedure: Core-modified porphyrin 6 gave a PDT response in vivo with 694-nm light in BALB/c mice bearing Colo-26 tumors. Animals treated with photosensitizer 6 at 3.25 mg (3.0 μmol)/kg and light required 10.3±0.8 d to reach 400-mm^3 tumor volume, which was more than double the time for control animals (4.3±1.0 d) receiving neither drug nor light (P <0.01).
The animals were irradiated 4 h post-injection with 135 J cm^−2 of 694-nm red light from a dye laser (75 mW cm^−2 for 30 min). […] For comparison purposes, BALB/C mice bearing Colo-26 tumors were given 2.5 mg (4.0 μmol)/kg of Photofrin® as a 5% aqueous dextrose solution and were irradiated 24 h later with 135 J cm^−2 of 630-nm laser light at a power of 75 mW cm^−2 for PDT with Photofrin®.
Animals initially were given i.v. (tail vein) injections of sensitizer at various concentrations (0.05to 5.0 μmol/kg). Mice were restrained at various times thereafter without anesthesia in specially designed holders. Fischer 344 female rats were chemically restrained at various times thereafter. In both models, tumors or normal back skin were exposed to light from a xenon arc lamp with appropriate filters or to a dye laser tuned to the absorption maximum determined by in vivo reflectance measurements. Power density of delivered light typically fell in the range of 10-200 mW cm^−2 evenly distributed to a spot size of roughly 1.5 cm and measured by a radiometer. Several dose rates were explored to examine role/limitation of available oxygen on the photodynamic process. Intratumor temperatures were measured with an Omega HYP-O microthermocouple and, when necessary, a stream of nitrogen gas was used to keep intratumor temperatures below 37° C. Animals were examined and measured daily for the first 14 days post treatment and every other day thereafter until the tumors reached 400 mm^3 in mice or until the tumors double in size for Fischer 344 female rats or for 90 days. Tumor size were measured in two dimensions with a caliper. Time to 400 mm^3 or volume doubling times of tumors from control and PDT-treated groups (8-12 animals per group) were compared statistically using the SAS statistical program (SAS, Inc., Cary, N.C.). A P-value of <0.05 is considered significant. The degree of damage to the normal skin within the irradiation field also were noted. Disappearance of tumor with minimal damage to normal skin is the most desirable response. Animals are considered cured if no tumor regrowth occurs by 90 days. In all studies, three control groups were utilized in addition to the treatment group receiving both sensitizer and light: 1) a complete control receiving neither drug nor light, 2) a group receiving sensitizer only, and 3) a group receiving light only. Representative animals from each of the treatment groups were processed for histology immediately, one day, or two weeks after irradiation. Step sections through the tumor were used to define the boundaries of tumor cell damage and death as a function of distance from the skin surface.

Structure (SMILES): O=C([O-])COc1ccc(-c2c3nc(c(-c4ccc(F)cc4)c4ccc(s4)c(-c4ccc(F)cc4)c4nc(c(-c5ccc(OCC(=O)[O-])cc5)c5ccc2s5)C=C4)C=C3)cc1.[Na+].[Na+] [MA-99]
- pEC50 (Colo-26 cells; 4 J cm^−2 of 590-800 nm light, read-out: EC50 against Colo-26 cells): 6.37
- phototoxicity relative to Photofrin® with laser excitation (FIG. 4a) (Colo-26 cells; Colo-26 cells, 694 nm dye laser for DH-82 and MA-99, 630 nm dye laser for Photofrin®): significantly greater phototoxicity at lower concentrations than Photofrin®
- rate of photobleaching (kbleach) [1]: 0.16 ± 0.02 × 10^4 s^−1
- reduction in cell number after light exposure (R3230AC cells): 40%
- inhibition of whole cell cytochrome c oxidase activity in the dark (cytochrome c oxidase; 24-h incubation, dark): 60%
- reduction of cytochrome c oxidase activity after irradiation (cytochrome c oxidase; 24 h after 0.9 J cm^−2 of 590-750 nm light, vs control untreated cells): 95%
- cures (no tumor regrowth 90 days post-treatment) (Colo-26 tumors): five cures
- mean time to 400 mm^3 of the animals not cured (Colo-26 tumors): 23 ± 7 days

— patent US6984656B2, “Core modified porphyrins” (priority 2001, dated 2006)
